PMC5851869 (Bioorganic & medicinal chemistry letters, 2018)

Each molecule was assayed against pa-HemO (Pseudomonas aeruginosa, UniProt O69002) (assay: fluorescence quenching assay). Details: not given.
Type: binding

Row | SMILES | Kd [nM]
1 | O=C(O)CCN1C(=O)/C(=C/c2cccc(Nc3ccccc3)c2)SC1=S [compound 21] | ~1000
2 | O=C(O)CCN1C(=O)/C(=C\c2ccc(-c3cccc(O)c3)o2)SC1=S [compound 27] | ~1000

Same assay, conditions: ratio of KD values relative to inhibitor 2

Row | SMILES | fold improvement in potency/affinity compared to compound 2
3 | O=C1/C(=C/c2ccccn2)SC(=S)N1CCc1nnn[nH]1 [compound 3] | ~2 fold
4 | COc1cccc(/C=C2\SC(=S)N(CCC(=O)O)C2=O)c1 [compound 8] | ~ 2 fold
5 | COc1ccc(/C=C2\SC(=S)N(CCC(=O)O)C2=O)cc1 [compound 9] | ~ 2 fold
6 | O=C(O)CCN1C(=O)/C(=C/c2ccc(Cl)cc2)SC1=S [compound 11] | > 3 fold
7 | CC(C)c1ccc(/C=C2\SC(=S)N(CCC(=O)O)C2=O)cc1 [compound 13] | 5 fold

What follows are molecules tested on P. aeruginosa (assay: not given). Details: statement covers both MIC50 and biofilm formation assays.
Type: cell-based, Pseudomonas aeruginosa

Row | SMILES | anti-bacterial effect (in words)
8 | O=C(O)CCN1C(=O)/C(=C\c2ccc(-c3ccccc3)cc2)SC1=S [compound 18] | poor anti-bacterial effects
9 | O=C(O)CCN1C(=O)/C(=C/c2cccc(Nc3ccccc3)c2)SC1=S [compound 21] | poor anti-bacterial effects
10 | O=C(O)CCN1C(=O)/C(=C\c2ccc(-c3cccc(O)c3)o2)SC1=S [compound 27] | poor anti-bacterial effects
11 | NCCN1C(=O)/C(=C/c2ccc(-c3ccccc3)cc2)SC1=S [compound 30] | did not have significant antibacterial activity
12 | CN(C)CCN1C(=O)/C(=C\c2ccc(-c3ccccc3)cc2)SC1=S [compound 31] | did not have significant antibacterial activity
